Measured values from patent publication US6339042B1, “Herbicidal N-cyclohexadienyl heteroaryloxyacetamides” (American Cyanamid Co., priority 1999, dated 2002).

Experiments:
Settings in all cases: three weeks after treatment
Amaranthus tuberculatus [1] = test: Pre-emergence herbicidal evaluation, AMATA; assay type: in vivo
Source text: (§1) The treated pots are then placed on greenhouse benches, watered and cared for in accordance with conventional greenhouse procedures.

Galium aparine [2] = test: Pre-emergence herbicidal evaluation, GALAP; assay type: in vivo
Source text: as §1

Alopecurus myosuroides [3] = test: Pre-emergence herbicidal evaluation, ALOMY; assay type: in vivo
Source text: as §1

Apera spica venti [4] = test: Pre-emergence herbicidal evaluation, APESV; assay type: in vivo
Source text: as §1

Echinochloa crus-galli [5] = test: Pre-emergence herbicidal evaluation, ECHCG; assay type: in vivo
Source text: as §1

Setaria viridis [6] = test: Pre-emergence herbicidal evaluation, SETVI; assay type: in vivo
Source text: as §1

Lolium perenne [7] = test: Pre-emergence herbicidal evaluation, LOLPE; assay type: in vivo
Source text: as §1

Triticum aestivum [8] = test: Pre-emergence herbicidal evaluation, TRZAW; assay type: in vivo
Source text: as §1

Hordeum vulgare [9] = test: Pre-emergence herbicidal evaluation, HORVW; assay type: in vivo
Source text: as §1

Zea mays [10] = test: Pre-emergence herbicidal evaluation, ZEAMX; assay type: in vivo
Source text: as §1

Glycine max [11] = test: Pre-emergence herbicidal evaluation, GLXMA; assay type: in vivo
Source text: as §1

Oryza sativum [12] = test: Pre-emergence herbicidal evaluation, ORYSA; assay type: in vivo
Source text: as §1

Amaranthus tuberculatus [13] = test: Post-emergence herbicidal evaluation, AMATA; assay type: in vivo
Galium aparine [14] = test: Post-emergence herbicidal evaluation, GALAP
Description: (§2) The compounds of the invention are tested for pre- and post-emergence herbicidal activity.
(§3) Each pot is examined three weeks after treatment and phytotoxicity is assessed according to the rating system set forth below.
(§4) These acetone solutions are diluted with water and the resulting formulations applied at dosage levels equivalent of about 0.4 to 0.1 kg per hectare of test compound per pot. After spraying the plants are placed on greenhouse benches and are cared for in the usual manner, commensurate with conventional greenhouse practices.

Alopecurus myosuroides [15] = test: Post-emergence herbicidal evaluation, ALOMY
Apera spica venti [16] = test: Post-emergence herbicidal evaluation, APESV
Description: as §2, §3, §4

Echinochloa crus-galli [17] = test: Post-emergence herbicidal evaluation, ECHCG
Setaria viridis [18] = test: Post-emergence herbicidal evaluation, SETVI
Lolium perenne [19] = test: Post-emergence herbicidal evaluation, LOLPE
Triticum aestivum [20] = test: Post-emergence herbicidal evaluation, TRZAW
Hordeum vulgare [21] = test: Post-emergence herbicidal evaluation, HORVW
Description: as §3, §4

Zea mays [22] = test: Post-emergence herbicidal evaluation, ZEAMX
Glycine max [23] = test: Post-emergence herbicidal evaluation, GLXMA
Oryza sativum [24] = test: Post-emergence herbicidal evaluation, ORYSA

Q: What does the source list for `CC1=CC(N(C(=O)COc2nnc(C(F)(F)F)s2)C(C)C)=CC(C)(C)C1` [Example 4]?
A: phytotoxicity rating AMATA (Amaranthus tuberculatus [1]; 0.100 kg/ha): 6 (6 - Herbicidal effect); phytotoxicity rating AMATA (Amaranthus tuberculatus [1]; 0.200 kg/ha): 6 (6 - Herbicidal effect); phytotoxicity rating AMATA (Amaranthus tuberculatus [1]; 0.400 kg/ha): 8 (8 - Approaching complete kill); phytotoxicity rating AMATA (Amaranthus tuberculatus [1]; 0.800 kg/ha): 8 (8 - Approaching complete kill); phytotoxicity rating GALAP (Galium aparine [2]; 0.100 kg/ha): 0 (0 - No effect); phytotoxicity rating GALAP (Galium aparine [2]; 0.200 kg/ha): 0 (0 - No effect); phytotoxicity rating GALAP (Galium aparine [2]; 0.400 kg/ha): 2 (2 - Slight effect); phytotoxicity rating GALAP (Galium aparine [2]; 0.800 kg/ha): 3 (3 - Moderate effect); phytotoxicity rating ALOMY (Alopecurus myosuroides [3]; 0.100 kg/ha): 7 (7 - Good herbicidal effect); phytotoxicity rating ALOMY (Alopecurus myosuroides [3]; 0.200 kg/ha): 7 (7 - Good herbicidal effect); phytotoxicity rating ALOMY (Alopecurus myosuroides [3]; 0.400 kg/ha): 7 (7 - Good herbicidal effect); phytotoxicity rating ALOMY (Alopecurus myosuroides [3]; 0.800 kg/ha): 9 (9 - Complete kill); phytotoxicity rating APESV (Apera spica venti [4]; 0.100 kg/ha): 9 (9 - Complete kill); phytotoxicity rating APESV (Apera spica venti [4]; 0.200 kg/ha): 9 (9 - Complete kill); phytotoxicity rating APESV (Apera spica venti [4]; 0.400 kg/ha): 9 (9 - Complete kill); phytotoxicity rating APESV (Apera spica venti [4]; 0.800 kg/ha): 9 (9 - Complete kill); phytotoxicity rating ECHCG (Echinochloa crus-galli [5]; 0.100 kg/ha): 6 (6 - Herbicidal effect); phytotoxicity rating ECHCG (Echinochloa crus-galli [5]; 0.200 kg/ha): 9 (9 - Complete kill); phytotoxicity rating ECHCG (Echinochloa crus-galli [5]; 0.400 kg/ha): 9 (9 - Complete kill); phytotoxicity rating ECHCG (Echinochloa crus-galli [5]; 0.800 kg/ha): 9 (9 - Complete kill); phytotoxicity rating SETVI (Setaria viridis [6]; 0.100 kg/ha): 6 (6 - Herbicidal effect); phytotoxicity rating SETVI (Setaria viridis [6]; 0.200 kg/ha): 6 (6 - Herbicidal effect); phytotoxicity rating SETVI (Setaria viridis [6]; 0.400 kg/ha): 6 (6 - Herbicidal effect); phytotoxicity rating SETVI (Setaria viridis [6]; 0.800 kg/ha): 9 (9 - Complete kill); phytotoxicity rating LOLPE (Lolium perenne [7]; 0.100 kg/ha): 8 (8 - Approaching complete kill); phytotoxicity rating LOLPE (Lolium perenne [7]; 0.200 kg/ha): 9 (9 - Complete kill); phytotoxicity rating LOLPE (Lolium perenne [7]; 0.400 kg/ha): 9 (9 - Complete kill); phytotoxicity rating LOLPE (Lolium perenne [7]; 0.800 kg/ha): 9 (9 - Complete kill); phytotoxicity rating TRZAW (Triticum aestivum [8]; 0.100 kg/ha): 0 (0 - No effect); phytotoxicity rating TRZAW (Triticum aestivum [8]; 0.200 kg/ha): 0 (0 - No effect); phytotoxicity rating TRZAW (Triticum aestivum [8]; 0.400 kg/ha): 1 (1 - Trace effect); phytotoxicity rating TRZAW (Triticum aestivum [8]; 0.800 kg/ha): 4 (4 - Injury); phytotoxicity rating HORVW (Hordeum vulgare [9]; 0.100 kg/ha): 0 (0 - No effect); phytotoxicity rating HORVW (Hordeum vulgare [9]; 0.200 kg/ha): 0 (0 - No effect); phytotoxicity rating HORVW (Hordeum vulgare [9]; 0.400 kg/ha): 1 (1 - Trace effect); phytotoxicity rating HORVW (Hordeum vulgare [9]; 0.800 kg/ha): 4 (4 - Injury); phytotoxicity rating ZEAMX (Zea mays [10]; 0.100 kg/ha): 0 (0 - No effect); phytotoxicity rating ZEAMX (Zea mays [10]; 0.200 kg/ha): 1 (1 - Trace effect); phytotoxicity rating ZEAMX (Zea mays [10]; 0.400 kg/ha): 1 (1 - Trace effect); phytotoxicity rating ZEAMX (Zea mays [10]; 0.800 kg/ha): 4 (4 - Injury); phytotoxicity rating GLXMA (Glycine max [11]; 0.100 kg/ha): 0 (0 - No effect); phytotoxicity rating GLXMA (Glycine max [11]; 0.200 kg/ha): 0 (0 - No effect); phytotoxicity rating GLXMA (Glycine max [11]; 0.400 kg/ha): 0 (0 - No effect); phytotoxicity rating GLXMA (Glycine max [11]; 0.800 kg/ha): 1 (1 - Trace effect); phytotoxicity rating ORYSA (Oryza sativum [12]; 0.100 kg/ha): 3 (3 - Moderate effect); phytotoxicity rating ORYSA (Oryza sativum [12]; 0.200 kg/ha): 4 (4 - Injury); phytotoxicity rating ORYSA (Oryza sativum [12]; 0.400 kg/ha): 5 (5 - Definite injury); phytotoxicity rating ORYSA (Oryza sativum [12]; 0.800 kg/ha): 5 (5 - Definite injury); phytotoxicity rating AMATA (Amaranthus tuberculatus [13]; 0.100 kg/ha): 1 (1 - Trace effect); phytotoxicity rating AMATA (Amaranthus tuberculatus [13]; 0.200 kg/ha): 1 (1 - Trace effect); phytotoxicity rating AMATA (Amaranthus tuberculatus [13]; 0.400 kg/ha): 4 (4 - Injury); phytotoxicity rating GALAP (Galium aparine [14]; 0.100 kg/ha): 0 (0 - No effect); phytotoxicity rating GALAP (Galium aparine [14]; 0.200 kg/ha): 0 (0 - No effect); phytotoxicity rating GALAP (Galium aparine [14]; 0.400 kg/ha): 2 (2 - Slight effect); phytotoxicity rating ALOMY (Alopecurus myosuroides [15]; 0.100 kg/ha): 4 (4 - Injury); phytotoxicity rating ALOMY (Alopecurus myosuroides [15]; 0.200 kg/ha): 8 (8 - Approaching complete kill); phytotoxicity rating ALOMY (Alopecurus myosuroides [15]; 0.400 kg/ha): 8 (8 - Approaching complete kill); phytotoxicity rating APESV (Apera spica venti [16]; 0.100 kg/ha): 2 (2 - Slight effect); phytotoxicity rating APESV (Apera spica venti [16]; 0.200 kg/ha): 8 (8 - Approaching complete kill); phytotoxicity rating APESV (Apera spica venti [16]; 0.400 kg/ha): 8 (8 - Approaching complete kill); phytotoxicity rating ECHCG (Echinochloa crus-galli [17]; 0.100 kg/ha): 3 (3 - Moderate effect); phytotoxicity rating ECHCG (Echinochloa crus-galli [17]; 0.200 kg/ha): 6 (6 - Herbicidal effect); phytotoxicity rating ECHCG (Echinochloa crus-galli [17]; 0.400 kg/ha): 6 (6 - Herbicidal effect); phytotoxicity rating SETVI (Setaria viridis [18]; 0.100 kg/ha): 3 (3 - Moderate effect); phytotoxicity rating SETVI (Setaria viridis [18]; 0.200 kg/ha): 5 (5 - Definite injury); phytotoxicity rating SETVI (Setaria viridis [18]; 0.400 kg/ha): 5 (5 - Definite injury); phytotoxicity rating LOLPE (Lolium perenne [19]; 0.100 kg/ha): 5 (5 - Definite injury); phytotoxicity rating LOLPE (Lolium perenne [19]; 0.200 kg/ha): 7 (7 - Good herbicidal effect); phytotoxicity rating LOLPE (Lolium perenne [19]; 0.400 kg/ha): 8 (8 - Approaching complete kill); phytotoxicity rating TRZAW (Triticum aestivum [20]; 0.100 kg/ha): 0 (0 - No effect); phytotoxicity rating TRZAW (Triticum aestivum [20]; 0.200 kg/ha): 1 (1 - Trace effect); phytotoxicity rating TRZAW (Triticum aestivum [20]; 0.400 kg/ha): 3 (3 - Moderate effect); phytotoxicity rating HORVW (Hordeum vulgare [21]; 0.100 kg/ha): 0 (0 - No effect); phytotoxicity rating HORVW (Hordeum vulgare [21]; 0.200 kg/ha): 1 (1 - Trace effect); phytotoxicity rating HORVW (Hordeum vulgare [21]; 0.400 kg/ha): 2 (2 - Slight effect); phytotoxicity rating ZEAMX (Zea mays [22]; 0.100 kg/ha): 0 (0 - No effect); phytotoxicity rating ZEAMX (Zea mays [22]; 0.200 kg/ha): 0 (0 - No effect); phytotoxicity rating ZEAMX (Zea mays [22]; 0.400 kg/ha): 0 (0 - No effect); phytotoxicity rating GLXMA (Glycine max [23]; 0.100 kg/ha): 2 (2 - Slight effect); phytotoxicity rating GLXMA (Glycine max [23]; 0.200 kg/ha): 4 (4 - Injury); phytotoxicity rating GLXMA (Glycine max [23]; 0.400 kg/ha): 6 (6 - Herbicidal effect); phytotoxicity rating ORYSA (Oryza sativum [24]; 0.100 kg/ha): 0 (0 - No effect); phytotoxicity rating ORYSA (Oryza sativum [24]; 0.200 kg/ha): 1 (1 - Trace effect); phytotoxicity rating ORYSA (Oryza sativum [24]; 0.400 kg/ha): 1 (1 - Trace effect)
